Laboratory results as given in patent US6699851B2, “Cytotoxic compounds and their use” (Ardenia Investments, Ltd., priority 2000, dated 2004).
Several values for one entry are separate records, joined by “and”; a condition that tells them apart may be missing. Identical values can stand only once.

Tests used:
[1] = tested on: Ehrlich ascites carcinoma (EAC); test: Effect of pretreatment with compositions on antitumour action of DXR in mice with EAC; format: in vivo; settings: DXR alone (positive control) 3.5 mg/kg i.v. day 1, 3, 5, 7, day 8
Description: Randombred albino mice of the ICR line, female, from own rearing were used in the study. The room for animal housing is provided with filtered air at 15 changes per hour, temperature of 19-21° C., relative humidity of 50-60% and regulated light day of 12 hours with change of light and darkness at 6 h a.m. and 6 h p.m. The mice were kept in transparent polycarbonate cages with floor area of 600 cm^2 containing softwood sawdust bedding. The animals had free access to bottles with domestic quality drinking tap water and to standard feeding for growing animals ad libidum. The mice age 2-2.5 months, weighing 20-23 g were randomly distributed to the control and test groups, standardised by mean weights. The control and test groups included 15 and 12 animals respectively. Specific earmarks identified the mice from each group. […]
The mice were killed by cervical dislocation one day later after the final treatment with the test substances on day 8. Ascites fluids were removed, collected, their volumes were recorded, and abdominal cavities were washed by saline 6-7 times and both fluids were pooled. Volumes of tumour cell pellet after centrifugation at 1000 r.p.m. for 10 min were also recorded. Number of viable tumour cells was counted by haemocytometer. Means and standard errors for each of animal groups were calculated. […] Influence of the composition on EAC growth inhibition was evaluated by: [formula] […]

[2] = tested on: HeLa cell line of human cervical carcinoma; test: Assay of cytotoxicity: HeLa cell growth inhibition (viable cell count, trypan blue exclusion); format: cell-based; settings: compound alone; for number of living cells: three days of cultivation
Description: The assay of cytotoxicity of the inventive preparations was carried out on the well-known human cervical carcinoma cell line HeLa. HeLa cells were cultivated in full cultivation medium, containing 80% of Eagle Minimal Essential Medium with glutamine (Sigma), 20% of normal bovine serum, penicillin 100 IE/ml and streptomycin 100 μg/ml. HeLa cell at concentration of 10^5 cells/ml were seed in 24-well plates for adhesive cell lines (Sarstedt) in volume of 2 ml per well. HeLa cells were cultivated in CO2-incubator at temperature 37° C. in humidified atmosphere, consisting of 95% air and 5% CO2. On the next day, the experimental cultures were supplemented with solutions of the inventive preparations in normal bovine serum (NBS) in a volume of 20 μl, in order to obtain the necessary concentration for studying these in cultures. Control cultures were supplemented with normal bovine serum. After that HeLa cells were cultivated two days again at the same conditions. On the third day, HeLa cells from each cultures were harvested separately using versen. The number of viable cells was counted using tryphan blue exclusion test and a hemocytometer.
For evaluation of the cytotoxic action of these assayed preparations on HeLa cells the means value and standard errors of means of viable cell numbers were calculated. The cell growth inhibition (%) was calculated as: [formula]
The extent of cell growth inhibition caused by the assayed preparations was used for evaluation of their cytotoxicity.

[3] = first series of concentrations (5.00-6.59×10^−10 mol/l final)
[4] = second series of concentrations (10.00-13.17×10^−10 mol/l final)

Row | SMILES | EAC growth inhibition [1] | number of tumour cells (EAC cells in abdominal cavity) [1] | cell growth inhibition [2, 3] | number of living cells [2, 3] | cell growth inhibition [2, 4] | number of living cells [2, 4]
1 | COc1cccc2c1C(=O)c1c(O)c3c(c(O)c1C2=O)C[C@@](O)(C(=O)CO)C[C@@H]3O[C@H]1C[C@H](N)[C@H](O)[C@H](C)O1 [DXR, Doxorubicin] | 42.8% and 45.1% and 47.3% and 39.4% and 44.5% | 525.2±74.5 ×10^6 and 436.3±51.8 ×10^6 and 614.4±60.2 ×10^6 and 542.6±50.1 ×10^6 and 534.8±39.3 ×10^6 | – | – | – | –
2 | CC1=C(/C=C/C(C)=C/C=C/C(C)=C/C(=O)N[C@@H](Cc2ccc(OP(=O)(O)O)cc2)C(=O)O)C(C)(C)CCC1 (stereo in doubt) [C11, N-(all-trans-retinoyl)-O-phospho-L-tyrosine] | – | – | 17.1% | 376.7±24.52 ×10^3 | 5.2% | 430.8±16.37 ×10^3
3 | CCC=CCC=CCC=CCC=CCC=CCC=CCCC(=O)NCCOP(=O)(O)O [C6, N-docosahexaenoyl-O-phospho-2-aminoethanol] | – | – | 6.6% | 424.2±18.41 ×10^3 | 7.4% | 420.8±27.79 ×10^3
